In EP0410147B1:

System: HRV2-2A
Assay type: biochemical
Details: for Spaltung des Peptidsubstrats in trans durch HRV2-2A: 30 min 37°C

Ac-TRPIITTAGPSDMYVH-NH2 [Peptid H, Ac-TRPIITTAGPSDMYVH-NH₂]
Spaltung des Peptidsubstrats in trans durch HRV2-2A: spezifisch zwischen Alanin und Glycin

TRPIITTYGPSDMYVH [Peptid K, Peptidsubstrat mit Spaltsignal Tyr/Gly statt Ala/Gly]
Spaltung des Peptidsubstrats: 100%
Spaltung des Peptidsubstrats durch HRV2-2A in Anwesenheit von 2,5 M NaCl: vollständige Spaltung
Spaltung des Peptidsubstrats in trans durch HRV2-2A: mit der gleichen Effizienz wie die nativen Peptidsubstrate vergleichbarer Länge von HRV2-2A gespalten
